From patent US20220041623A1, “INDOLE MACROCYCLIC DERIVATIVE, PREPARATION METHOD THEREOF AND APPLICATION THEREOF IN MEDICINE” (JIANGSU HENGRUI MEDICINE CO., LTD., priority 2018, published 2022)
Like-named read-outs stand apart in the source and are kept apart here.

Experiments:
MCL-1 protein = target: T1, MCL-1 protein (Homo sapiens, UniProt Q07820); test: MCL-1 protein binding experiment (HTRF, MCL-1/Bim); settings: for inhibition at up to 10 µM: HTRF MCL-1/Bim binding, initial concentration 10 μM, read-out: Maximum inhibition rate (%); for Ki: HTRF, 0.1 nM His-MCL-1, 2.5 nM bio-Bim, room temperature
T1 construct: Bim peptide bought from R&D, 3526/1 NA
T1 sequence (Q07820 171-327): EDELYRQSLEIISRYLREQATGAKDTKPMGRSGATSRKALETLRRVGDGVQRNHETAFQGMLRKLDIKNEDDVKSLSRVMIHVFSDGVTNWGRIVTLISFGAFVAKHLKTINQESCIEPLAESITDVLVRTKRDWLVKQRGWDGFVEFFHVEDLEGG
Description: The following method was used to determine the binding ability of the compound of the present invention to MCL-1 protein. The experimental method is briefly described as follows.
MCL-1 inhibitors can bind to MCL-1 protein to prevent the binding of MCL-1 to Bim protein. The experiment evaluates the binding ability of MCL-1 inhibitor to MCL-1 protein by detecting the binding of MCL-1 to Bim protein through HTRF method, and the activity of the compound was evaluated according to the Ki value.
The mixture was incubated at room temperature for 2 hours, followed by the detection of fluorescence signals at 620 nm and 665 nm by PHERAstar. The data was processed by GraphPad software.

AMO-1 cells = test: Cell proliferation experiment (intracellular ATP, CellTiter-Glo), AMO-1; assay type: cell-based; settings: Homo sapiens, AMO1, 72 h, read-out: AMO-1 IC50
Description: (§1) The following method evaluates the inhibition effect of the compound of the present invention on the proliferation of AMO-1 and MV-4-11 cells according to IC50 value by detecting intracellular ATP content. The experimental method is briefly described as follows.
1. AMO-1, human bone marrow plasmacytoma (Nanjing Cobioer Biosciences Co., Ltd., CBP60242)
(§2) AMO-1 cells were cultured in RPMI1640 medium (containing 20% FBS), and MV-4-11 cells were cultured in IMDM medium (containing 10% FBS). The cells were passaged for 2 to 3 times a week, with a passage ratio of 1:4 or 1:6. During the passage, the cells were transferred to a centrifuge tube and centrifuged at 1200 rpm for 3 minutes. The supernatant was discarded, and fresh medium was added to resuspend the cells. […] 100 μL of complete medium was added to the periphery of the 96-well plate. The plate was incubated in an incubator for 24 hours (37° C., 5% CO2).
(§3) The test sample was diluted to 20 mM with DMSO, and then diluted to 9 concentrations by diluting in 4-fold gradient. Blank and control wells were set. 5 μL of the test compound solution formulated as gradient concentration was added to 95 μL of fresh medium. 10 µL of the above drug-containing medium solution was added to the plate. The plate was incubated in an incubator for 3 days (37° C., 5% CO2). In the 96-well cell culture plate, 50 μL of CellTiter-Glo reagent was added to each well, and the plate was left to stand in the dark at room temperature for 5 to 10 minutes. The chemiluminescence signal value was read in PHERAstar, and the data was processed by GraphPad software.

MV-4-11 cells = test: Cell proliferation experiment (intracellular ATP, CellTiter-Glo), MV-4-11; assay type: cell-based; settings: Homo sapiens, MV4-11, 72 h, read-out: MV-4-11 IC50
Description: as §1, §2, §3

CYP2C9 = target: T2, CYP2C9 (Homo sapiens, UniProt P11712); test: Inhibition of human liver microsomal P450 subenzyme CYP2C9; assay type: in vitro ADME; settings: human liver microsomes, diclofenac metabolic site, 30 minutes incubation; read-out: 2C9 IC50
T2 construct: Human liver microsomes (Corning Gentest, Cat No. 452161, Lot No. 6123001, 33 Donors); tissue Corning Gentest 452161; host or cells: human liver microsomes, pool of 33 donors
T2 sequence (P11712 whole entry): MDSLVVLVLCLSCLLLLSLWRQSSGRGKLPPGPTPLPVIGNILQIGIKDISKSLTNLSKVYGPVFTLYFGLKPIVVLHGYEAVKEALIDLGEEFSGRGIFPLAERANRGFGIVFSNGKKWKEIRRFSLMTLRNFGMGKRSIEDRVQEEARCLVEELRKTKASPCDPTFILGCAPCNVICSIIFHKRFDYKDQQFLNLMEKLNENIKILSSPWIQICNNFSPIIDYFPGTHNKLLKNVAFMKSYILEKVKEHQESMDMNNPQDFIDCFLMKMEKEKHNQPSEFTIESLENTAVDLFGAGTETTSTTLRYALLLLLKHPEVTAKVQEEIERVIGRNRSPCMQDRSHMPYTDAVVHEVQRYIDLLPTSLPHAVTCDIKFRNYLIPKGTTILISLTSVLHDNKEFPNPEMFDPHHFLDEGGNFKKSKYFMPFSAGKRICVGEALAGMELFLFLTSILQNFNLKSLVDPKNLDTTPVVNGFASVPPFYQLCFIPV
Description: (§4) The inhibition effect of the compound of the present invention on the enzymatic activity of human liver microsomal P450 subenzymes CYP2C9 and 2C19 was determined by the following experimental method.
(§5) 6. CYP probe substrate for 2C9 (Diclofenac/4 μM, SIGMA, Cat No. D6899-10G) and CYP probe substrate for 2C19 ((S)-Mephenytoin/20 μM, J&K Scientific Ltd., CatNo. 303768); positive control inhibitor for 2C9 ([…], SIGMA, Cat No. 526-08-9) and positive control inhibitor for 2C19 (Ticlopidine, SIGMA, Cat No. T6654-1G).
(§6) 100 mM PBS buffer solution was formulated. 2.5 mg/mL microsome solution, 15 mM MgCl2 solution and 5 mM NADPH solution were formulated with the buffer solution. 30 mM stock solution was diluted with DMSO into a serial solution I with concentrations of 10 mM, 3 mM, 1 mM, 0.3 mM, 0.1 mM, 0.03 mM, […] and 0 mM. The above serial solution I was diluted for 200 times with the phosphate buffer solution (PBS) to obtain a serial test solution II (150, 50, 15, 5, 1.5, 0.15, 0.015, 0 μM). […]
(§7) The data were calculated by Graphpad Prism to obtain the IC50 values of the compound for the diclofenac metabolic site of CYP2C9 and (S)-mephenytoin metabolic site of 2C19. which are shown in Table 3.

2C19 = target: T3, 2C19 (Homo sapiens, UniProt P33261); test: Inhibition of human liver microsomal P450 subenzyme CYP2C19; assay type: in vitro ADME; settings: human liver microsomes, (S)-mephenytoin metabolic site, 30 minutes incubation
T3 construct: Human liver microsomes (Corning Gentest, Cat No. 452161, Lot No. 6123001, 33 Donors); tissue Corning Gentest 452161; host or cells: human liver microsomes, pool of 33 donors
T3 sequence (P33261 whole entry): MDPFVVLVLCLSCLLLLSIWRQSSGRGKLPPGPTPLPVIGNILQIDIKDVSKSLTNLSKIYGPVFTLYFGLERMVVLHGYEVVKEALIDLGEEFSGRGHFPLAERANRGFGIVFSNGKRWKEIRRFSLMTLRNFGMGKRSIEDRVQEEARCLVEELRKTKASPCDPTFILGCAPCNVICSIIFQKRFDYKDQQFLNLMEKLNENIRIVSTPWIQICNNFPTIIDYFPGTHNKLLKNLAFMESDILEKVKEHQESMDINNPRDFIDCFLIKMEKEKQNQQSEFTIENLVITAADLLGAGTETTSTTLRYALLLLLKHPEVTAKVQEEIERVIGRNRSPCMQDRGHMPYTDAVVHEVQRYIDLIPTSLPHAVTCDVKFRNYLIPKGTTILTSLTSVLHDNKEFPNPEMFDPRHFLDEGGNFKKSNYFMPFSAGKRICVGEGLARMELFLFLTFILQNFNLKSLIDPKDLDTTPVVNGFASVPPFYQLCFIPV
Description: as §4, §5, §6, §7

[1] = AMO-1 cells, incubated 3 days, CellTiter-Glo
[2] = MV-4-11 cells, incubated 3 days, CellTiter-Glo

Compound | inhibition at up to 10 µM (MCL-1 protein) | Ki (MCL-1 protein) | IC50 (MV-4-11 cells; [2]) | IC50 (MV-4-11 cells) | IC50 (CYP2C9) | IC50 (2C19) | IC50 (AMO-1 cells; [1]) | IC50 (AMO-1 cells)
Cc1c(C(=O)O)n2c3ccc(Cl)c(c13)-c1c(nn(C)c1C)CSCc1cc(n(C)n1)CCc1cc(c3ccccc3c1)OCCC2 (single isomer, unassigned) [Example 4-1, (Ra)-17-Chloro-5,13,14,22-tetramethyl-28-oxa-9-thia-5,6,12,13,24-pentaazaheptacyclo[27.7.1.1^4,7.0^11,15.0^16,21.0^20,24.0^30,35]octatriaconta-1(37),4(38),6,11,14,16,18,20,22,29,31,33,35-tridecaene-23-carboxylic acid] | 100% | 0.15 nM |  | 39 nM |  |  |  | 37 nM
Cc1c(C(=O)O)n2c3ccc(Cl)c(c13)-c1c(nn(C)c1C)CSCc1cc(n(C)n1)CSc1cc3c(c(c1)OCCC2)CCCC3 (single isomer, unassigned) [Example 7-1, (Ra)-17-Chloro-5,13,14,22-tetramethyl-28-oxa-2,9-dithia-5,6,12,13,24-pentaazaheptacyclo[27.7.1.1^4,7.0^11,15.0^16,21.0^20,24.0^30,35]octatriaconta-1(37),4(38),6,11,14,16,18,20,22,29,35-undecaene-23-carboxylic acid] | 99% | 0.74 nM | 71 nM |  |  |  | 70 nM | 
Cc1c(C(=O)O)n2c3ccc(Cl)c(c13)-c1c(nn(C)c1C)CSCc1cc(n(C)n1)CSc1cc(cc3c1CCC3)OCCC2 (single isomer, unassigned) [Example 12-1, (Ra)-17-Chloro-5,13,14,22-tetramethyl-28-oxa-2,9-dithia-5,6,12,13,24-pentaazaheptacyclo[27.6.1.1^4,7.0^11,15.0^16,21.0^20,24.0^30,35]heptatriaconta-1(36),4(37),6,11,14,16,18,20,22,29,31(35)-undecaene-23-carboxylic acid] | 100% | 0.24 nM | 36 nM |  | > 30000 nM | > 30000 nM | 34 nM | 
Cc1c(C(=O)O)n2c3ccc(Cl)c(c13)-c1c(nn(C)c1C)CSCc1cc(n(C)n1)CCc1cc3c(c(c1)OCCC2)CCCC3 [Example 8, 17-Chloro-5,13,14,22-tetramethyl-28-oxa-9-thia-5,6,12,13,24-pentaazaheptacyclo[27.7.1.1^4,7.0^11,15.0^16,21.0^20,24.0^30,35]octatriaconta-1(37),4(38),6,11,14,16,18,20,22,29,35-undecaene-23-carboxylic acid] | 100% | 0.55 nM |  |  |  |  |  | 
Cc1c(C(=O)O)n2c3ccc(Cl)c(c13)-c1c(nn(C)c1C)CN(C)Cc1cc(n(C)n1)CSc1cc3c(c(c1)OCCC2)CCCC3 [Example 9, 17-Chloro-5,9,13,14,22-pentamethyl-28-oxa-2-thia-5,6,9,12,13,24-hexaazaheptacyclo[27.7.1.1^4,7.0^11,15.0^16,21.0^20,24.0^30,35]octatriaconta-1(37),4(38),6,11,14,16,18,20,22,29,35-undecaene-23-carboxylic acid] | 100% | 1.5 nM |  |  |  |  |  | 

The remaining compounds from weak to strong by Ki (MCL-1 protein), led by results:

inhibition at up to 10 µM (MCL-1 protein) | Ki (MCL-1 protein) | IC50 (MV-4-11 cells; [2]) | IC50 (MV-4-11 cells) | IC50 (CYP2C9) | IC50 (2C19) | Compound | IC50 (AMO-1 cells; [1]) | IC50 (AMO-1 cells)
101% | 7.9 nM |  |  |  |  | Cc1c(C(=O)O)n2c3ccc(Cl)c(c13)-c1c(nn3c1CCCC3)CSCc1cc(n(C)n1)CSc1cc(c3ccccc3c1)OCCC2 [Example 10, 21-Chloro-5,26-dimethyl-32-oxa-2,9-dithia-5,6,12,13,28-pentaazaoctacyclo[31.7.1.1^4,7.0^11,19.0^13,18.0^20,25.0^24,28.0^34,39]dotetraconta-1(41),4(42),6,11,18,20,22,24,26,33,35,37,39-tridecaene-27-carboxylic acid] |  | 
100% | 3 nM |  |  |  |  | Cc1c(C(=O)O)n2c3ccc(Cl)c(c13)-c1c(nn3c1CCCC3)CN(C)Cc1cc(n(C)n1)CSc1cc(c3ccccc3c1)OCCC2 [Example 11, 21-Chloro-5,9,26-trimethyl-32-oxa-2-thia-5,6,9,12,13,28-hexaazaoctacyclo[31.7.1.1^4,7.0^11,19.0^13,18.0^20,25.0^24,28.0^34,39]dotetraconta-1(41),4(42),6,11,18,20,22,24,26,33,35,37,39-tridecaene-27-carboxylic acid] |  | 
100% | 0.46 nM | 136 nM |  |  |  | Cc1c(C(=O)O)n2c3ccc(Cl)c(c13)-c1c(nn(C)c1C)CSCc1cc(n(C)n1)CCc1cc3c(c(c1)OCCC2)CCCC3 (single isomer, unassigned) [Example 8-1, (Ra)-17-Chloro-5,13,14,22-tetramethyl-28-oxa-9-thia-5,6,12,13,24-pentaazaheptacyclo[27.7.1.1^4,7.0^11,15.0^16,21.0^20,24.0^30,35]octatriaconta-1(37),4(38),6,11,14,16,18,20,22,29,35-undecaene-23-carboxylic acid] | 100 nM | 
100% | 0.22 nM | 63 nM |  |  |  | Cc1c(C(=O)O)n2c3ccc(Cl)c(c13)-c1c(nn(C)c1C)CSCc1cc(n(C)n1)CSc1cc(cc3c1CCC3)OCCC2 [Example 12, 17-Chloro-5,13,14,22-tetramethyl-28-oxa-2,9-dithia-5,6,12,13,24-pentaazaheptacyclo[27.6.1.1^4,7.0^11,15.0^16,21.0^20,24.0^30,35]heptatriaconta-1(36),4(37),6,11,14,16,18,20,22,29,31(35)-undecaene-23-carboxylic acid] | 63 nM | 
100% | 0.11 nM | 42 nM |  |  |  | Cc1c(C(=O)O)n2c3ccc(Cl)c(c13)-c1c(nn(C)c1C)CSCc1cc(n(C)n1)CSc1cc(c3ccccc3c1)OCCC2 (single isomer, unassigned) [Example 2-1, (Ra)-17-Chloro-5,13,14,22-tetramethyl-28-oxa-2,9-dithia-5,6,12,13,24-pentaazaheptacyclo[27.7.1.1^4,7.0^11,15.0^16,21.0^20,24.0^30,35]octatriaconta-1(37),4(38),6,11,14,16,18,20,22,29,31,33,35-tridecaene-23-carboxylic acid] | 76 nM | 
